The text below walks through data of PubChem BioAssay AID1259407 (Chemical Carcinogenesis Research Information System (CCRIS), 2018).

Structures are written as SMILES. The source made the active and inactive calls. No rule for the calls is given here.

The data set has as its system CCRIS mutagenicity, Ames/micronucleus/aberration tests. The experiment in a line: CCRIS mutagenicity studies.
Where [1] appears, read: Test System: AMES SALMONELLA TYPHIMURIUM, Strain/Indicator: TA98, Metabolic Activation: NONE, Method: STANDARD PLATE.
Where [2] appears, read: Test System: AMES SALMONELLA TYPHIMURIUM, Strain/Indicator: TA98, Metabolic Activation: RAT, LIVER, S-9, AROCLOR 1254, Method: STANDARD PLATE.
[3] abbreviates: Test System: AMES SALMONELLA TYPHIMURIUM, Strain/Indicator: TA100, Metabolic Activation: NONE, Method: STANDARD PLATE.
Where [4] appears, read: Test System: AMES SALMONELLA TYPHIMURIUM, Strain/Indicator: TA100, Metabolic Activation: RAT, LIVER, S-9, AROCLOR 1254, Method: STANDARD PLATE.
Where [5] appears, read: Test System: AMES SALMONELLA TYPHIMURIUM, Strain/Indicator: TA1535, Metabolic Activation: NONE, Method: STANDARD PLATE.
Where [6] appears, read: Test System: AMES SALMONELLA TYPHIMURIUM, Strain/Indicator: TA1535, Metabolic Activation: RAT, LIVER, S-9, AROCLOR 1254, Method: STANDARD PLATE.
[7] abbreviates: Test System: AMES SALMONELLA TYPHIMURIUM, Strain/Indicator: TA1537, Metabolic Activation: NONE, Method: STANDARD PLATE.
The mark [8] stands for this setting: Test System: AMES SALMONELLA TYPHIMURIUM, Strain/Indicator: TA1537, Metabolic Activation: RAT, LIVER, S-9, AROCLOR 1254, Method: STANDARD PLATE.

Regarding `CC(C)CCCCCCOC(=O)CCCCC(=O)OCCCCCCC(C)C`, the mutagenic call is “inactive; negative” (Test System: AMES SALMONELLA TYPHIMURIUM, Strain/Indicator: TA98, Metabolic Activation: HAMSTER, LIVER, S-9, AROCLOR 1254, Method: STANDARD PLATE); “inactive; negative” under setting [1]; “inactive; negative” under setting [2]; “inactive; negative” (Test System: AMES SALMONELLA TYPHIMURIUM, Strain/Indicator: TA100, Metabolic Activation: HAMSTER, LIVER, S-9, AROCLOR 1254, Method: STANDARD PLATE); “inactive; negative” under setting [3]; “inactive; negative” under setting [4]. In addition, the mutagenic call by setting is: (Test System: AMES SALMONELLA TYPHIMURIUM, Strain/Indicator: TA1535, Metabolic Activation: HAMSTER, LIVER, S-9, AROCLOR 1254, Method: STANDARD PLATE) “inactive; negative”; under setting [5], “inactive; negative”; under setting [6], “inactive; negative”; (Test System: AMES SALMONELLA TYPHIMURIUM, Strain/Indicator: TA1537, Metabolic Activation: HAMSTER, LIVER, S-9, AROCLOR 1254, Method: STANDARD PLATE) “inactive; negative”; under setting [7], “inactive; negative”; under setting [8], “inactive; negative”. Also, the mutagenic call (Test System: AMES SALMONELLA TYPHIMURIUM, Strain/Indicator: TA1538, Metabolic Activation: HAMSTER, LIVER, S-9, AROCLOR 1254, Method: STANDARD PLATE) is “inactive; negative”; the mutagenic call (Test System: AMES SALMONELLA TYPHIMURIUM, Strain/Indicator: TA1538, Metabolic Activation: NONE, Method: STANDARD PLATE) is “inactive; negative”; the mutagenic call (Test System: AMES SALMONELLA TYPHIMURIUM, Strain/Indicator: TA1538, Metabolic Activation: RAT, LIVER, S-9, AROCLOR 1254, Method: STANDARD PLATE) was “inactive; negative”; the mutagenic call (Test System: MOUSE LYMPHOMA, Strain/Indicator: L5178Y (TK+/TK-), Metabolic Activation: NONE, Method: SUSPENSION/PLATE) is “inactive; negative”; the mutagenic call (Test System: MOUSE LYMPHOMA, Strain/Indicator: L5178Y (TK+/TK-), Metabolic Activation: RAT, LIVER, S-9, AROCLOR 1254, Method: SUSPENSION/PLATE) was “inactive; negative”.

With `CN(C)c1nc(=O)n(C2CCCCC2)c(=O)n1C`, the mutagenic call is, setting by setting: (End Point: In vitro chromosomal aberrations, Test System: Chinese hamster ovary (CHO) cells, Metabolic Activation: None) “active; positive”; (End Point: In vitro chromosomal aberrations, Test System: Chinese hamster ovary (CHO) cells, Metabolic Activation: S-9) “inactive; negative”.

For the compound `O=C(Nc1ccc(F)cc1)c1csc([N+](=O)[O-])c1`, the mutagenic call under setting [1] is “active; positive” and the mutagenic call under setting [3] was “active; positive”.

Take `CCC(=O)N(O)c1ccc(Cl)c(Cl)c1`: the mutagenic call is “inactive; negative” (Test System: AMES SALMONELLA TYPHIMURIUM, Strain/Indicator: TA97, Metabolic Activation: NONE, Method: STANDARD PLATE); “inactive; negative” (Test System: AMES SALMONELLA TYPHIMURIUM, Strain/Indicator: TA97, Metabolic Activation: RAT, LIVER, S-9, AROCLOR 1254, Method: STANDARD PLATE); “inactive; negative” under setting [1]; “inactive; negative” under setting [2]; “inactive; negative” under setting [3]; “inactive; negative” under setting [4]. The mutagenic call (Test System: AMES SALMONELLA TYPHIMURIUM, Strain/Indicator: TA104, Metabolic Activation: NONE, Method: STANDARD PLATE) is “inactive; negative” and the mutagenic call (Test System: AMES SALMONELLA TYPHIMURIUM, Strain/Indicator: TA104, Metabolic Activation: RAT, LIVER, S-9, AROCLOR 1254, Method: STANDARD PLATE) was “inactive; negative”.

`CN1Cc2c(N)cccc2C(c2ccccc2)C1` (centres undefined): the mutagenic call reads like this: under setting [1], “inactive; negative”; under setting [2], “inactive; negative”; under setting [3], “inactive; negative”; under setting [4], “inactive; negative”; under setting [5], “inactive; negative”; under setting [6], “inactive; negative”. For the same compound, the mutagenic call is “inactive; negative” under setting [7] and “inactive; negative” under setting [8].

For the compound `c1cnc2c(c1)ccc1c2ccc2cccnc21`, the mutagenic call reads like this: (Test System: AMES SALMONELLA TYPHIMURIUM, Strain/Indicator: TA100, Metabolic Activation: POOLED HUMAN LIVER MICROSOMES, Method: PREINCUBATION) “active; positive”; (Test System: AMES SALMONELLA TYPHIMURIUM, Strain/Indicator: TA100, Metabolic Activation: RAT, LIVER, S-9, PHENOBARBITAL AND 5,6-BENZOFLAVONE, Method: PREINCUBATION) “active; positive”; (Test System: Ames Salmonella typhimurium, Strain/Indicator: TA100, Metabolic Activation: Rat, Liver, S-9) “active; positive”; (Test System: LACZ TRANSGENIC MOUSE (MUTATM MOUSE), Strain/Indicator: LACZ MUTANT FREQUENCY, Method: LIVER, SPLEEN, LUNG, KIDNEY, BONE MARROW, COLON HARVESTED 7 D AFTER LAST DOSE, DNA ISOLATED) “active; positive; g:c to t:a transversions in all organs”.

With `O=C(O)c1ccccc1O`, the mutagenic call by setting is: (Test System: AMES SALMONELLA TYPHIMURIUM, Strain/Indicator: TA98, Metabolic Activation: GUINEA PIG, LIVER, S-9, PCB, Method: PREINCUBATION) “inactive; negative”; (Test System: AMES SALMONELLA TYPHIMURIUM, Strain/Indicator: TA98, Metabolic Activation: HAMSTER, LIVER, S-9, PCB, Method: PREINCUBATION) “inactive; negative”; (Test System: AMES SALMONELLA TYPHIMURIUM, Strain/Indicator: TA98, Metabolic Activation: MOUSE, LIVER, S-9, PCB, Method: PREINCUBATION) “inactive; negative”; (Test System: AMES SALMONELLA TYPHIMURIUM, Strain/Indicator: TA98, Metabolic Activation: NONE, Method: PREINCUBATION) “inactive; negative”; (Test System: AMES SALMONELLA TYPHIMURIUM, Strain/Indicator: TA98, Metabolic Activation: RAT LIVER S-9, PHENOBARBITAL AND BETA-NAPHTHOFLAVONE, Method: PREINCUBATION) “inactive; negative”; (Test System: AMES SALMONELLA TYPHIMURIUM, Strain/Indicator: TA98, Metabolic Activation: RAT, LIVER, S-9, PCB, Method: PREINCUBATION) “inactive; negative”. Also, the mutagenic call is, setting by setting: (Test System: AMES SALMONELLA TYPHIMURIUM, Strain/Indicator: TA100, Metabolic Activation: GUINEA PIG, LIVER, S-9, PCB, Method: PREINCUBATION) “inactive; negative”; (Test System: AMES SALMONELLA TYPHIMURIUM, Strain/Indicator: TA100, Metabolic Activation: HAMSTER, LIVER, S-9, PCB, Method: PREINCUBATION) “inactive; negative”; (Test System: AMES SALMONELLA TYPHIMURIUM, Strain/Indicator: TA100, Metabolic Activation: MOUSE, LIVER, S-9, PCB, Method: PREINCUBATION) “inactive; negative”; (Test System: AMES SALMONELLA TYPHIMURIUM, Strain/Indicator: TA100, Metabolic Activation: NONE, Method: PREINCUBATION) “inactive; negative”; (Test System: AMES SALMONELLA TYPHIMURIUM, Strain/Indicator: TA100, Metabolic Activation: RAT LIVER S-9, PHENOBARBITAL AND BETA-NAPHTHOFLAVONE, Method: PREINCUBATION) “inactive; negative”; (Test System: AMES SALMONELLA TYPHIMURIUM, Strain/Indicator: TA1535, Metabolic Activation: NONE, Method: PREINCUBATION) “inactive; negative”. In addition, the mutagenic call is, setting by setting: (Test System: AMES SALMONELLA TYPHIMURIUM, Strain/Indicator: TA1535, Metabolic Activation: RAT LIVER S-9, PHENOBARBITAL AND BETA-NAPHTHOFLAVONE, Method: PREINCUBATION) “inactive; negative”; (Test System: AMES SALMONELLA TYPHIMURIUM, Strain/Indicator: TA1537, Metabolic Activation: NONE, Method: PREINCUBATION) “inactive; negative”; (Test System: AMES SALMONELLA TYPHIMURIUM, Strain/Indicator: TA1537, Metabolic Activation: RAT LIVER S-9, PHENOBARBITAL AND BETA-NAPHTHOFLAVONE, Method: PREINCUBATION) “inactive; negative”; (Test System: E.COLI, Strain/Indicator: WP2UVRA/PKM101, Metabolic Activation: NONE, Method: PREINCUBATION) “inactive; negative”; (Test System: E.COLI, Strain/Indicator: WP2UVRA/PKM101, Metabolic Activation: RAT LIVER S-9, PHENOBARBITAL AND BETA-NAPHTHOFLAVONE, Method: PREINCUBATION) “inactive; negative”.

In the case of `O=c1c2c(c3c(ccc4ccc[nH]c43)c1O)O2`, under setting [3], the mutagenic call was “active; positive”.
